SMILES strings stand for the structures.

Usually melting point stands for the temperature, or range, at which the solid turns liquid. Compound `Nc1nc(Cl)c(-c2ccc(Cl)cc2Cl)c(Cl)n1` yielded a melting point of 211 to 213 °C.

On to `Cc1cc(NC(=O)NS(=O)(=O)c2ccccc2)cc(C)c1S(=O)(=O)C[N+](=O)[O-]`, for which the melting point was 140 to 142 °C.

As for `FC(F)(F)c1ccc(-c2cc(C(F)(F)F)c3ncc(I)n3n2)cc1`, the melting point lay in the range of 123 to 125 °C.

In the case of `CCCOc1ccc(SC(C)(C)C)cc1C(N)=O`, the melting point lay in the range of 136 to 138 °C.

Regarding `O=C(OC1CCCCC1)c1ncn2c1[C@@H]1CCCN1C(=O)c1c(I)cccc1-2`, the melting point was in the range of 181 to 182 °C.

On to `CCCCCCC(C(=O)O)n1cc(CC)c2cc(-c3ccccc3-c3nn[nH]n3)ccc21` (stereo not drawn), for which the melting point fell in the range of 110 to 113 °C.

For the compound `Cn1c(-c2ccc3c(c2)C(C)(C)OC(=O)N3)ccc1[N+](=O)[O-]`, the melting point is 180 to 185 °C.

As for `Cc1cccc(COc2cccc(OCc3ccc4cc(F)cc(F)c4n3)c2)c1OCC(=O)O`, the melting point fell in the range of 137 to 141 °C.

As to `OCC1(c2ccc(Cl)cc2)CCN(CCC(c2ccccc2)(c2ccccc2)c2ccccc2)CC1`, the melting point lay within 156 to 158 °C.

In the case of `CCOC(=O)NNC(=O)NCCOc1ccccc1`, the melting point was 170 to 173 °C.

The compound `C[Si](C)(C)CCOc1ccc(N)cn1` showed a melting point of 59 to 61 °C.

As to `CCOC(=O)c1cc(CCC2CNc3nc(NC(=O)C(C)(C)C)nc(O)c3C2)[nH]n1` (stereo not drawn), the melting point was 235 to 237 °C.

Consider `COC(=O)Nc1nc(C(=O)C(=O)OC)ns1`, for which the melting point is 112 to 117 °C.

`COC(=O)c1sccc1Nc1ccnc2c(Cl)cccc12`: the melting point was 226 °C.

As for `CN=C(NC#N)N1CC1`, the melting point fell in the range of 130 to 132 °C.

Take `C=C(C)c1cc(NC(=O)N2CCN(c3cc(OC)cc(OC)c3)CC2)c(OC)nc1C`: the melting point was in the range of 83 to 85 °C.

For `Oc1ccc2cc(-c3csc(Cc4c(Cl)cccc4Cl)n3)ccc2c1`, the melting point lay within 191 to 193 °C.

Regarding `COc1cc(N(CC(N)=O)S(=O)(=O)c2ccc(OC)c(OC)c2)c(C(O)c2c(F)cccc2F)cc1C` (stereo not drawn), the melting point came to 204 °C.

The compound `CN(C)[C@@H]1CN2C(=O)N(c3cc(Cl)cc(Cl)c3)C(=O)[C@@]2(Cc2ccc(Br)cc2)C1` registered a melting point of 54 °C.

Compound `CC(C)(CNS(=O)(=O)c1ccc(-c2ccccn2)s1)N1CCC(Oc2ccc(F)c(F)c2)CC1` showed a melting point of 133 to 134 °C.

For `O=C(NC1CCC(CCN2CCN(c3nccc4c3OCC4)CC2)CC1)C(O)C(F)(F)F` (racemic), the melting point amounted to 185 °C.

Consider `CCC1CC(=O)C=C2CCC3C4CCC(=O)C4(C)CCC3C21C` (stereo not drawn), for which the melting point turned out to be 168 °C.

Compound `CNC(=O)C(C)CCn1c(COc2ccc(Cl)cc2)nc2c(C)cccc21` (stereo not drawn) returned a melting point of 168 °C.

Take `CS(=O)(=O)c1ccc(-c2oc(CCCC(=O)O)nc2-c2ccc(F)cc2)cc1`: the melting point was in the range of 140 to 141 °C.

For `CONC(=O)Nc1ccc(-c2sc3c(c2CN(C)C(C)c2ccccc2)c(=O)n(-c2ccccc2)c(=O)n3Cc2c(F)cccc2F)cc1` (stereo not drawn), the melting point fell in the range of 191 to 192 °C.

The compound `CC1(C)Cc2cccc(C(=O)O)c2S1` yielded a melting point of 179 to 182 °C.

For `O=C(O)CC[C@H](NC(=O)N1CCc2cc(S(=O)(=O)N3CCN(c4cccc(Cl)c4)CC3)ccc21)C(=O)O`, the melting point fell in the range of 181 to 182 °C.

`CC(=O)c1cccc(-c2ccc(COc3ccc(C(=O)O)c(O)c3)cc2)c1` showed a melting point of 215 to 220 °C.

For `CC(C)c1csc(NC(=O)OC(C)(C)C)c1C(=O)O`, the melting point was in the range of 205 to 206 °C.

For the compound `O=c1n(CCCCN2CCN(c3cccc(Cl)c3)CC2)nc2ccccn12`, the melting point lay in the range of 122 to 123 °C.

`COc1ccc2cc([C@H](C)C(=O)ON3C(=O)c4ccccc4C3=O)ccc2c1` yielded a melting point of 110 to 112 °C.

Compound `CC#CCOc1cc(OCC#CCC)ncn1` returned a melting point of 67.4 °C.

For `CCOc1ccc(-c2cc(C)cn2-c2ccc(S(N)(=O)=O)cc2)cc1`, the melting point was 135 to 139 °C.

For `O=C(Nc1ccc2cc(CN3CCCC3)cnc2c1)c1ccc(-c2ccc(Cl)cc2)cc1`, the melting point lay within 217 to 220 °C.

On to `Nc1cc(-c2noc(-c3cnn4ccc(-c5ccc(C(F)(F)F)cc5)nc34)n2)ccn1`, for which the melting point turned out to be 250 °C.

The compound `COc1ccc(-c2nc(Cl)sc2-c2ccc(OC)cc2)cc1` registered a melting point of 92 to 94 °C.

For the compound `N#Cc1cn(-c2ccc([N+](=O)[O-])cc2)nc1[N+](=O)[O-]`, the melting point was 172 to 175 °C.

For `O=C1Cc2ccccc2Sc2cc(F)c(F)cc21`, the melting point lay within 110 to 112 °C.

For the compound `Cc1cc(-c2cccc(C(F)(F)F)c2)n2ncc(C(=O)c3ccccc3)c2n1`, the melting point lay in the range of 153 to 154 °C.

For the compound `Cn1cc(Oc2ccccc2)c(=O)c(-c2cccc(C(F)(F)F)c2)c1`, the melting point was in the range of 144 to 145 °C.

Compound `O=C1C(Cl)=C(c2ccccc2)C(=O)N1c1ccccc1` showed a melting point of 82 to 83 °C.

As for `Cc1cc(Br)c2[nH]c(=O)n(CCCN3CC=C(c4ccc(Cl)cc4)CC3)c(=O)c2c1`, the melting point lay within 212 to 214 °C.

As for `Nc1nc(N)c2cc(Cc3ccccc3Cl)ccc2n1`, the melting point lay within 220 to 222 °C.

For `NC(/C=C(/F)P(=O)(O)O)CCc1ccc(Sc2cccc(OCc3ccccc3)c2)cc1Cl` (stereo not drawn), the melting point is 285 to 288 °C.

`Cc1cc(=O)c2ccccc2s1` showed a melting point of 70 °C.

Consider `CC1(CBr)SC2C(NC(=O)Cc3ccccc3)C(=O)N2C1C(=O)OCC(Cl)(Cl)Cl` (stereo not drawn), for which the melting point is 90 to 93 °C.

Compound `CN1Cc2c(C#CC(C)(C)C)ncn2-c2cccc(Cl)c2C1=O` returned a melting point of 126 to 128 °C.

Consider `Cc1cnc(-c2ncn3c2[C@@H]2CCCN2C(=O)c2c(Cl)cccc2-3)o1`, for which the melting point fell in the range of 228 to 230 °C.

As for `Cc1cn(-c2cccc(C3=Nc4ccc(-c5ccccc5F)cc4NC(=O)C3)c2)c(C)n1`, the melting point stood at 92 °C.

`CCC(O)(c1ccc(Cl)cc1)c1ccc(OCCCN2CCCCC2)cc1` (stereo not drawn) showed a melting point of 104 to 105 °C.

In turn, `C#CCOc1cc(O)ccc1-c1nc2cnccc2[nH]1` came in with a melting point of 242 °C.

For the compound `O=c1c2c(Cc3ccccc3)n[nH]c2c2cnccc2n1-c1ccccc1`, the melting point was 284 to 287 °C.

`COc1ccc(-c2cc(F)cc3c2NC(CN)CO3)cc1` (stereo not drawn) displayed a melting point of 72 °C.

Compound `O=C(O)CCC(O)c1ccc(-c2ccccc2)c(Cl)c1` (stereo not drawn) displayed a melting point of 87 to 88 °C.

`COC(CN1CCN(c2ccc(F)cc2)CC1)CN1c2cccc3cccc(c23)S1(=O)=O` (stereo not drawn) yielded a melting point of 128 °C.

For the compound `FC(F)(F)Oc1ccc(-c2ccc(C=CCBr)cc2)cc1`, the melting point was 121 to 123 °C.

The compound `C#CCN(C(=O)OC)C1CN(C(=O)Nc2ccc(OC(F)(F)F)cc2)N=C1c1ccc(Cl)cc1` (stereo not drawn) showed a melting point of 184 to 185 °C.

The compound `CCC(C)(COc1nn2ncnc2cc1C)CS(N)(=O)=O` (stereo not drawn) showed a melting point of 189 to 190 °C.

In turn, `N#Cc1ccc(N2CC(=O)NC2=O)c(-c2cccs2)c1` gave a melting point of 189 °C.

For `COC(=O)c1cc(S(N)(=O)=O)cc2c1OCCO2`, the melting point was in the range of 225 to 226 °C.

As to `CNC(=O)ON=C(C)CSC(F)(F)F`, the melting point was 56 to 58 °C.

In turn, `O=c1c2c(nc3c(OCc4ccccc4)cccn13)CCC2` displayed a melting point of 150 to 152 °C.

For the compound `Cc1ncc(CN2CC=C(/C=C/c3ccccc3)CC2)c(N)n1`, the melting point lay within 199 to 203 °C.

The record behind these values is a melting point compilation (Tetko et al.; mined from patent text by program, amines drawn as free bases though some values may be those of a salt).
